# Laboratory results published in patent publication US20250263376A1, “(E)-N-CINNAMOYLAMINOALKANOLS WITH MELANOGENESIS INHIBITORY ACTIVITY” (Uniwersytet Jagiellonski, priority 2024, published 2025).
# Legend:
# S. typhimurium TA100 = assay: Ames microplate test, TA100; type: cell-based, Salmonella typhimurium
# Method: (§2) The study used the Ames microplate test (Ames MPF™ Penta 2 by Xenometrix, Allschwil, Switzerland). Growth medium, exposure medium, indicator medium, positive controls, hepatic microsomal fraction, NADP, glucose-6-phosphate, Salmonella typhimurium and Escherichia coli strains were components of the purchased experimental kit. Bacteria were grown overnight in growth medium. They were then exposed to the test compound at the appropriate concentration in exposure medium without or with the rat microsomal fraction S9 in 24-well plates for 90 min at 37° C. with shaking. Then, indicator medium was added to the wells and pipetted into 384-well plates, which were incubated for 48 hours at 37° C. without shaking. Results were assessed by counting the wells in which the medium turned yellow for each experimental condition.
# S. typhimurium TA98 = assay: Ames microplate test, TA98; type: cell-based, Salmonella typhimurium
# Method: (§1) Bacteria were grown overnight in growth medium.
# E. coli WP2 = assay: Ames microplate test, E. coli WP2;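 note: bacteria exposed to compound for 90 min at 37 °C in 24-well plates, then transferred with indicator medium to 384-well plates and incubated 48 h before yellow well counting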
# Method: as §2
# S. typhimurium TA1537 = assay: Ames microplate test, TA1537; type: cell-based, Salmonella typhimurium
# Method: as §1
# [1] = system: human reconstructed epidermis model EpiDerm; assay: Extended skin irritation test in reconstructed human epidermis EpiDerm; type: cell-based; settings: 1.0% in 50% PEG (10 μL)
# Method: Extended Skin Irritation Tests on Reconstructed Human Epidermis-Exposure Time Extended to 7 Days.
# In order to perform extended skin irritation (safety) tests on the reconstructed human epidermis, the exposure time to the tested compounds was extended to 2 and 7 days in the human reconstructed epidermis model EpiDerm™ from MatTek. The epidermis was cultured according to the manufacturer's recommendations, using appropriate multi-well plates and culture media. Solutions of the tested compounds were applied to the epidermis using a positive displacement pipette and distributed using a sterile glass bulb headed Pasteur pipette. […] The epidermis was cultured in an incubator ensuring appropriate humidity, temperature (37° C.) and CO2 concentration (5%). The medium was replaced daily. After an appropriate incubation time, i.e. 2 days or 7 days, the epidermis was rinsed with sterile DPBS and incubated with MTT (Thiazolyl Blue Tetrazolium bromide) solution at 37° C. for 3 hours. After this time, a purple color of formazan was observed, correlated with tissue viability. […] Moreover, in the medium collected after the first 24 hours of EpiDerm epidermis culture, the level of interleukin 1α (Il-1α), which is a mediator of inflammation, was determined. Its level correlates with the unfavorable (irritating) effect of the tested substances on the epidermis. The level of IL-1α was determined using the Cayman Elisa test.
smiles,measurement,setting,value
"O=C(/C=C/c1ccccc1)NCCCCCCO [H-425/21, (E)-N-(6-hydroxyhexyl)cinnamic acid amide]","Increase in the number of yellow wells compared to the reference level, TA100","S. typhimurium TA100; 0.5 mM, + S9",0.50
same,"Increase in the number of yellow wells compared to the reference level, TA100","S. typhimurium TA100; 0.5 mM, without S9",0.73
same,"Increase in the number of yellow wells compared to the reference level, TA100","S. typhimurium TA100; 1.0 mM, + S9",0.69
same,"Increase in the number of yellow wells compared to the reference level, TA100","S. typhimurium TA100; 1.0 mM, without S9",0.80
same,"Increase in the number of yellow wells compared to the reference level, TA100","S. typhimurium TA100; 2.0 mM, + S9",0.58
same,"Increase in the number of yellow wells compared to the reference level, TA100","S. typhimurium TA100; 2.0 mM, without S9",0.73
same,"Increase in the number of yellow wells compared to the reference level, TA98","S. typhimurium TA98; 0.5 mM, + S9",0.42
same,"Increase in the number of yellow wells compared to the reference level, TA98","S. typhimurium TA98; 0.5 mM, without S9",0.27
same,"Increase in the number of yellow wells compared to the reference level, TA98","S. typhimurium TA98; 1.0 mM, + S9",0.42
same,"Increase in the number of yellow wells compared to the reference level, TA98","S. typhimurium TA98; 1.0 mM, without S9",0.54
same,"Increase in the number of yellow wells compared to the reference level, TA98","S. typhimurium TA98; 2.0 mM, + S9",0.63
same,"Increase in the number of yellow wells compared to the reference level, TA98","S. typhimurium TA98; 2.0 mM, without S9",0.80
same,"Increase in the number of yellow wells compared to the reference level, E. coli WP2","E. coli WP2; 0.5 mM, + S9",0.75
same,"Increase in the number of yellow wells compared to the reference level, E. coli WP2","E. coli WP2; 0.5 mM, without S9",0.17
same,"Increase in the number of yellow wells compared to the reference level, E. coli WP2","E. coli WP2; 1.0 mM, + S9",0.83
same,"Increase in the number of yellow wells compared to the reference level, E. coli WP2","E. coli WP2; 1.0 mM, without S9",0.67
same,"Increase in the number of yellow wells compared to the reference level, E. coli WP2","E. coli WP2; 2.0 mM, + S9",0.75
same,"Increase in the number of yellow wells compared to the reference level, E. coli WP2","E. coli WP2; 2.0 mM, without S9",1.00
same,"Increase in the number of yellow wells compared to the reference level, TA1537","S. typhimurium TA1537; 0.5 mM, + S9",1.33
same,"Increase in the number of yellow wells compared to the reference level, TA1537","S. typhimurium TA1537; 0.5 mM, without S9",0.09
same,"Increase in the number of yellow wells compared to the reference level, TA1537","S. typhimurium TA1537; 1.0 mM, + S9",0.00
same,"Increase in the number of yellow wells compared to the reference level, TA1537","S. typhimurium TA1537; 1.0 mM, without S9",0.18
same,"Increase in the number of yellow wells compared to the reference level, TA1537","S. typhimurium TA1537; 2.0 mM, + S9",1.00
same,"Increase in the number of yellow wells compared to the reference level, TA1537","S. typhimurium TA1537; 2.0 mM, without S9",0.82
same,"Viability [% of control, mean ± SD] 2 days",[1],99.75 ± 15.49 % of control
same,"Viability [% of control, mean ± SD] 7 days",[1],104.01 ± 1.11 % of control
same,Il-1α in culture medium,[1]; medium after first 24 hours,60.29 ± 1.08 pg/mL
